Reference: article PMC9090415, “Discovery of small molecule inhibitors of Plasmodium falciparum apicoplast DNA polymerase” (Journal of Enzyme Inhibition and Medicinal Chemistry, 2022)

Target: P. falciparum apicoplast DNA polymerase (Pf-apPOL) (Plasmodium falciparum, UniProt Q8ILY1)
Test: Fluorescence-based high-throughput DNA polymerase assay (molecular beacon), primary screen and dose-response
Format: biochemical
Conditions: for DNA Pol: 90 min, 10 µM; for % inhibition apPOL 180' 2.5 / % inhibition apPOL 180' 5 / % inhibition apPOL 180' 10 / % inhibition apPOL 180' 20 / % inhibition apPOL 180' 40 / % inhibition apPOL 180' 80: read at 180'
Procedure, shortened: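 Single-point screening used 10 µM compound with 20 nM polymerase, 20 nM hairpin substrate and 6 µM dNTPs for 90 min at 25 °C. Confirmatory titrations (2.5–80 µM) followed fluorescence at three times, and IC50 was derived from a fit including a cooperativity term n.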

P. falciparum apicoplast DNA polymerase (Pf-apPOL), sequence (Q8ILY1 entry or part of it): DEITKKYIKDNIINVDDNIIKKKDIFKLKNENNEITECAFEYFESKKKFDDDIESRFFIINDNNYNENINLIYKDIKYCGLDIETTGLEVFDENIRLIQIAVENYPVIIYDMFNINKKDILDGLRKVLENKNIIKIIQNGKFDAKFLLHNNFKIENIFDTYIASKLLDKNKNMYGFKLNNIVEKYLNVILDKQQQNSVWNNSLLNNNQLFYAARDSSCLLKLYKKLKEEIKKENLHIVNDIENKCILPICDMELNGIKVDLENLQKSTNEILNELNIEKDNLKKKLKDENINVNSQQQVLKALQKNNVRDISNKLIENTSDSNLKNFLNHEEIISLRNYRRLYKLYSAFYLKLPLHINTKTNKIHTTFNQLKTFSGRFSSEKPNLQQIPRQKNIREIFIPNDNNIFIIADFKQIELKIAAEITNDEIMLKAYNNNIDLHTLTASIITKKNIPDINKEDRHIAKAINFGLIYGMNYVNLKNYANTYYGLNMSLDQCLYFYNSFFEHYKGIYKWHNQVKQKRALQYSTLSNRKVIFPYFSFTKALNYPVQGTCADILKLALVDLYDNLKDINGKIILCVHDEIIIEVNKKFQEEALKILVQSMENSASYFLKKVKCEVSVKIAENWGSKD

CC(=O)c1cc2c(N)c(/C(N)=N/C#N)sc2nc1C [KU0015866]
DNA Pol ('DNA Pol' of the 186 hits list (primary screen value)): 33
DNA Pol (DNA Pol (primary screen value)): 33
% inhibition Apo pol 10' (DRC-1, concentration 2.5): 6.515%
% inhibition Apo pol 10' (DRC-1, concentration 5): 12.7693%
% inhibition Apo pol 10' (DRC-1, concentration 10): 31.7983%
% inhibition Apo pol 10' (DRC-1, concentration 20): 44.0355%
% inhibition Apo pol 10' (DRC-1, concentration 40): 64.9344%
% inhibition Apo pol 10' (DRC-1, concentration 80): 81.2768%
% inhibition Apol 90' (DRC-1, concentration 2.5): -0.6957%
% inhibition Apol 90' (DRC-1, concentration 5): -1.631%
% inhibition Apol 90' (DRC-1, concentration 10): 8.506%
% inhibition Apol 90' (DRC-1, concentration 20): 14.7865%
% inhibition Apol 90' (DRC-1, concentration 40): 35.058%
% inhibition Apol 90' (DRC-1, concentration 80): 75.8739%
% inhibition apPOL 180' (DRC-1, concentration 2.5): -1.629%
% inhibition apPOL 180' (DRC-1, concentration 5): -5.477%
% inhibition apPOL 180' (DRC-1, concentration 10): 0.782%
% inhibition apPOL 180' (DRC-1, concentration 20): 3.3611%
% inhibition apPOL 180' (DRC-1, concentration 40): 18.0593%
% inhibition apPOL 180' (DRC-1, concentration 80): 70.7811%
% inhibition Apo pol 5' (DRC-2, concentration 2.5): 7%
% inhibition Apo pol 5' (DRC-2, concentration 5): 12%
% inhibition Apo pol 5' (DRC-2, concentration 10): 28%
% inhibition Apo pol 5' (DRC-2, concentration 20): 37%
% inhibition Apo pol 5' (DRC-2, concentration 40): 40%
% inhibition Apo pol 5' (DRC-2, concentration 80): 37%
% inhibition Apol 40' (DRC-2, concentration 2.5): 6%
% inhibition Apol 40' (DRC-2, concentration 5): 4.46%
% inhibition Apol 40' (DRC-2, concentration 10): 19%
% inhibition Apol 40' (DRC-2, concentration 20): 33%
% inhibition Apol 40' (DRC-2, concentration 40): 48%
% inhibition Apol 40' (DRC-2, concentration 80): 55%
% inhibition ApPOL 90' (DRC-2, concentration 2.5): 4.51%
% inhibition ApPOL 90' (DRC-2, concentration 5): 1.44%
% inhibition ApPOL 90' (DRC-2, concentration 10): 14%
% inhibition ApPOL 90' (DRC-2, concentration 20): 25%
% inhibition ApPOL 90' (DRC-2, concentration 40): 45%
% inhibition ApPOL 90' (DRC-2, concentration 80): 56%
% inhibition apPOL 180' (DRC-2, concentration 2.5): -4.65%
% inhibition apPOL 180' (DRC-2, concentration 5): -9%
% inhibition apPOL 180' (DRC-2, concentration 10): -0.253%
% inhibition apPOL 180' (DRC-2, concentration 20): 10%
% inhibition apPOL 180' (DRC-2, concentration 40): 34%
% inhibition apPOL 180' (DRC-2, concentration 80): 54%

O=C(CCc1csc(NC(=O)Nc2ccccc2)n1)Nc1nc2ccccc2s1 [KU0177354]
DNA Pol (186 hits, DNA Pol (screen value), unit not given): 40
DNA Pol ('DNA Pol' (screen value), unit not given): 40
% inhibition Apo pol 10' 2.5 (DRC-1, read at 10', concentration 2.5): 5.576%
% inhibition Apo pol 10' 5 (DRC-1, read at 10', concentration 5): 8.503%
% inhibition Apo pol 10' 10 (DRC-1, read at 10', concentration 10): 43.0217%
% inhibition Apo pol 10' 20 (DRC-1, read at 10', concentration 20): 76.9078%
% inhibition Apo pol 10' 40 (DRC-1, read at 10', concentration 40): 79.3304%
% inhibition Apo pol 10' 80 (DRC-1, read at 10', concentration 80): 82.5837%
% inhibition Apol 90' 2.5 (DRC-1, read at 90', concentration 2.5): -1.376%
% inhibition Apol 90' 5 (DRC-1, read at 90', concentration 5): -0.284%
% inhibition Apol 90' 10 (DRC-1, read at 90', concentration 10): 25.6988%
% inhibition Apol 90' 20 (DRC-1, read at 90', concentration 20): 59.1025%
% inhibition Apol 90' 40 (DRC-1, read at 90', concentration 40): 63.1922%
% inhibition Apol 90' 80 (DRC-1, read at 90', concentration 80): 69.3927%
% inhibition apPOL 180' 2.5 (DRC-1, concentration 2.5): -6.865%
% inhibition apPOL 180' 5 (DRC-1, concentration 5): -6.2%
% inhibition apPOL 180' 10 (DRC-1, concentration 10): 11.7395%
% inhibition apPOL 180' 20 (DRC-1, concentration 20): 39.4261%
% inhibition apPOL 180' 40 (DRC-1, concentration 40): 45.9927%
% inhibition apPOL 180' 80 (DRC-1, concentration 80): 55.8861%
% inhibition Apo pol 5' (DRC-2, concentration 5): -6%
% inhibition Apo pol 5' (DRC-2, concentration 20): 37%
% inhibition Apol 40' (DRC-2, concentration 5): -6%
% inhibition Apol 40' (DRC-2, concentration 10): 46%
% inhibition Apol 40' (DRC-2, concentration 20): 49%
% inhibition Apol 40' (DRC-2, concentration 40): 53%
% inhibition Apol 40' (DRC-2, concentration 80): 49%
% inhibition ApPOL 90' (DRC-2, concentration 40): 53%
% inhibition apPOL 180' (DRC-2, concentration 20): 37%
% inhibition apPOL 180' (DRC-2, concentration 80): 46%
% inhibition Apo pol 5' 2.5 (DRC-2, read at 5', concentration 2.5): -3.16%
% inhibition Apo pol 5' 5 (DRC-2, read at 5', concentration 5): -6%
% inhibition Apo pol 5' 10 (DRC-2, read at 5', concentration 10): 38%
% inhibition Apo pol 5' 20 (DRC-2, read at 5', concentration 20): 37%
% inhibition Apo pol 5' 40 (DRC-2, read at 5', concentration 40): 34%
% inhibition Apo pol 5' 80 (DRC-2, read at 5', concentration 80): 29%
% inhibition Apol 40' 2.5 (DRC-2, read at 40', concentration 2.5): -3.41%
% inhibition Apol 40' 5 (DRC-2, read at 40', concentration 5): -6%
% inhibition Apol 40' 10 (DRC-2, read at 40', concentration 10): 46%
% inhibition Apol 40' 20 (DRC-2, read at 40', concentration 20): 49%
% inhibition Apol 40' 40 (DRC-2, read at 40', concentration 40): 53%
% inhibition Apol 40' 80 (DRC-2, read at 40', concentration 80): 49%
% inhibition ApPOL 90' 2.5 (DRC-2, read at 90', concentration 2.5): -4%
% inhibition ApPOL 90' 5 (DRC-2, read at 90', concentration 5): -7%
% inhibition ApPOL 90' 10 (DRC-2, read at 90', concentration 10): 43%
% inhibition ApPOL 90' 20 (DRC-2, read at 90', concentration 20): 48%
% inhibition ApPOL 90' 40 (DRC-2, read at 90', concentration 40): 53%
% inhibition ApPOL 90' 80 (DRC-2, read at 90', concentration 80): 51%
% inhibition apPOL 180' 2.5 (DRC-2, concentration 2.5): -8%
% inhibition apPOL 180' 5 (DRC-2, concentration 5): -12%
% inhibition apPOL 180' 10 (DRC-2, concentration 10): 32%
% inhibition apPOL 180' 20 (DRC-2, concentration 20): 37%
% inhibition apPOL 180' 40 (DRC-2, concentration 40): 47%
% inhibition apPOL 180' 80 (DRC-2, concentration 80): 46%
